In one data set the test system is ALDH1A1. As to the kind of experiment: Antisense inhibition of ALDH1A1 expression in rat substantia nigra, immunoblot. In kind it is in vivo. Conditions: 1 week or 2 weeks; for optical density of ALDH1A1 Western blot bands, ipsilateral vs contralateral: Unscan software. The procedure:
Antisense inhibition of ALDH1A1 expression in rats.
The immunoreactive bands of the Western blot of FIG. 8 were analyzed by Unscan it soft ware (Silk Scientific) and their optical densities plotted in FIG. 9.
In general terms: A western blot detects proteins with antibodies after separation by electrophoresis.

The test system of the next data set is rats. The data set can be described thus: Rotational asymmetry after apomorphine. Type of data set: in vivo, rat. Particulars: apomorphine 0.4 mg/kg, n=7. How it is done:
(§1) Determination of DOPAL-induced Parkinson's disease-like behavior Injections of DOPAL or ALDH1A1 antisense oligo into rat SN. To determine if increased levels of DOPAL in SN produces a behavioral model of PD, 3 groups of rats were tested: unilateral SN injection of 4 μg DOPAL in 6 rats; unilateral SN injection of 0.56 μg antisense oligonucleotide (oligo) targeted to aldehyde dehydrogenase (ALDH1A1) mRNA, the DOPAL catabolic enzyme in 3 rats; 5 non-injected rats. After 5-7 weeks, rats were injected with apomorphine (0.4 mg/kg, subcutaneously) and rotational asymmetry determined in each group just prior to sacrifice. After the brains were fixed and sectioned, the SN, and forebrain were stained immunohistochemically for tyrosine hydroxylase immunoreactivity (THir). See Section 3.
Determination of rotational asymmetry. Rats first were injected subcutaneously with the dopamine agonist apomorphine (0.4 mg/kg) dissolved in 0.1 ascorbate saline solution. After waiting 5 min in their home cage, they were placed in a hemispheric rotation bowl 40 cm wide and 20 cm deep. Rotational behavior was then determined for 30 min and the number of ipsilateral and contralateral turns quantified by observation.
Rotational asymmetry was assessed to quantify the effect of unilateral depletions of striatal dopamine from disruptions of nigrostriatal circuitry. The rotational asymmetry behavior of rats (n=6) changed dramatically after injections with DOPAL (FIG. 5).
Behavioral asymmetry is considered the standard behavioral test for rodent models of Parkinson's disease. The column on the right is a summary of all the behaviors recorded in the rotational asymmetry test for all the rats ([…]).

In the next data set the test system is DA SN neurons. As to the kind of experiment: TH and NeuN immunohistochemistry after ALDH1A1 antisense injections into substantia nigra. In kind it is in vivo, rat. The procedure: as §1
An antisense compound was used to decrease expression of ALDH1A1, which is responsible for breaking down DOPAL within the neuronal cell body and its effects on dopamine SN neurons and behavior were examined (FIGS. 6, 7). Three unilateral injections (total 800 nl; 700 pg/nl) of an antisense compound oligonucleotide (SEQ ID NO: 1), directed against the enzyme ALDH1A1, and comprising a phosphorothioate backbone, were made into the substantia nigra nucleus of the rat. The injections were placed in the pars compacta portion of the substantia nigra, the subnucleus where most of the dopaminergic neurons are found.

A further data set relates to PC12 cells. As to the kind of experiment: DOPAL toxicity in vitro, viable PC12 cell count (trypan blue). The procedure:
Determination of DOPAL toxicity in vitro Toxicity experiments were essentially as described previously. PC12 cultures were initially expanded in T-75 flasks with 20 ml Dulbecco's Modified Eagle's Medium supplemented with 4.5 g/l glucose, 4 mM L-glutamine, 5% fetal calf serum, 10% horse serum, 1000 units/l penicillin, and 100 mg/l streptomycin. Cells were transferred to six well culture plates with 2 ml media and grown to 1.5×10^5 cells/well, treated with 50 ng/ml nerve growth factor (NGF), and maintained in NGF-containing media for 7 d prior to experimentation. The medium was changed every 2-3 d. […] During the experiments, the medium was replaced once a day. Cells were detached with buffered saline containing EDT A, centrifuged at 200×g and resuspended in trypan blue for counting of viable cells. […] DOPAL and other compounds were added as described in the description of the figure and examples. Data was analyzed by ANOVA.
DOPAL, as well as other physiologically metabolites and adducts, were added to PC12 cells in culture at concentrations that were physiologically relevant.

For the next data set, the target named is α-synuclein (Homo sapiens, UniProt P37840). The data set can be described thus: DOPAL-triggered α-synuclein aggregation in test tube, Western blot. Conditions: AS 2 μM, 37° C., up to 4 h, DOPAL 1.5-1,500 μM. In kind it is biochemical. The procedure:
Determination of DOPAL-triggered α-synuclein aggregation in vitro. Western blot of DOPAL-triggered AS aggregation in test tube experiments. DOPAL was dissolved in 1% benzyl alcohol, then diluted to a final concentration of 1.5-1,500 μM as described previously. AS (2 μM) was incubated at 37° C. in 20 μl of 100 mM tris-HCl buffer (pH 7.2) with or without DA, DOPAL, DOPAC, or homovanillic acid (HVA) for up to 4 h. The reaction was stopped by heating at 70° C. for 3 min in SDS buffer. The entire mixture was transferred to the appropriate gel (vide infra).
SDS-PAGE and immunoblotting. Ten micrograms of protein (estimated by Bio Rad protein reagent) was resolved by electrophoresis on 4-12% bis-tris gels run with MES SDS buffer, and 3-8% tris-acetate gels using tris-acetate running buffer. For immunoblotting, the protein was transferred to PVDF blotting membranes with […] pore size, blocked with 5% milk protein in tris buffered saline (TBS) containing 0.1% Tween 20, and incubated for 1 h with a AS 202 monoclonal antibody (1:2,500 dilution). Blots were washed five times with 5% milk protein in TBS and probed with horseradish peroxidase-conjugated anti-mouse secondary antibody (1:2,500). Blots were washed five times with TBS containing. 0.5% Tween 20 before detection with Super Signal (Pierce).
Western blot analysis was performed to analyze DOPAL-induced aggregation of α-synuclein (FIG. 1). […]

Another data set concerns ALDH. Particulars: Lamensdorf et al. 2000; cited from earlier work.
The mark [1] stands for this setting: Experiment 1, 66 μM, None 299 ± 19.

Entries after “also recorded” stand apart in the source; their conditions may differ. Like-named read-outs stand apart in the source and are kept apart here.

Take “5″-AGCAGACGATCTCTCTCCATT-3″ (DNA, backbone and methylation of C not given here) [Antisense 2, 21-base antisense oligonucleotide complementary to residues 313 to 333 of rat ALDH1A1 mRNA]”: in the data set on ALDH1A1, the “ALDH1A1 protein, ipsilateral injected side vs contralateral side, Western blot” value is reported as “Loss of ALDH1A1” and the “optical density of ALDH1A1 Western blot bands, ipsilateral vs contralateral” value is “loss of ALDH1A1”. For the same compound, in the data set with ALDH1A1 (listed as antisense 2), the “ALDH1A1 protein, ipsilateral injected side vs contralateral side, Western blot” value is “loss of ALDH1A1 protein”. Moreover, the “rotational asymmetry after unilateral antisense injection into SN” value with rats is on record as “dramatic shifts in its rotational preference”.

“5″-TGCAGGGGAAGACATTGCTGGT-3″ [Antisense 1]”: in the data set with ALDH1A1, the “ALDH1A1 protein, ipsilateral injected side vs contralateral side, Western blot” value was “Loss of ALDH1A1” and the “optical density of ALDH1A1 Western blot bands, ipsilateral vs contralateral” value is listed as “loss of ALDH1A1”. Moreover, the “ALDH1A1 protein, ipsilateral injected side vs contralateral side, Western blot” value with ALDH1A1 (listed as antisense 1) is reported as “loss of ALDH1A1 protein”. The “neurons immediately adjacent to the injection site, Neun immunostaining” value in the data set with DA SN neurons (case R2504) is listed as “have died”. Also, the “intensity of TH staining in the injected SN” value in the data set with DA SN neurons (three unilateral injections, total 800 nl, 700 pg/nl) is on record as “slightly less”. Besides, the “dopaminergic projections to rostral brain / ventral striatum, TH immunostaining” value with DA SN neurons (three unilateral injections, total 800 nl, 700 pg/nl, 5 or 7 weeks, listed as SEQ ID NO: 1) is “dramatically reduced; also recorded: absent/decreased”. Moreover, in the data set with rats, the “rotational asymmetry after unilateral antisense injection into SN” value is listed as “dramatic shifts in its rotational preference”.

Consider `NCCc1ccc(O)c(O)c1` [DA, dopamine], for which the “toxic in vitro at physiological levels” value in the data set with PC12 cells is “not”. For the same compound, in the data set with PC12 cells (rat, 66 μM), the “PC 12 cells/well × 103” value is recorded as 329 ± 21 cells/well × 103. Also, the “aggregation of α-synuclein oligomers in vitro” value on α-synuclein is “not”.

For `O=C(O)Cc1ccc(O)c(O)c1` [DOPAC, 3,4-dihydroxyphenylacetic acid], the “toxic in vitro at physiological levels” value in the data set on PC12 cells is listed as “not”. For the same compound, the “PC 12 cells/well × 103” value in the data set on PC12 cells (rat, 66 μM) is recorded as 334 ± 10 cells/well × 103.

`COc1cc(CC(=O)O)ccc1O` [HVA, homovanillic acid]: the “PC 12 cells/well × 103” value with PC12 cells (setting [1]) is recorded as 322 ± 20 cells/well × 103. Further, the “toxic in vitro at physiological levels” value with PC12 cells (PC12 cells in culture) was “not”.

`C=C(C)[C@H]1Cc2c(ccc3c2O[C@@H]2COc4cc(OC)c(OC)cc4[C@@H]2C3=O)O1` [Rotenone, rotenone]: the “PC 12 cells/well × 103” value in the data set on PC12 cells (Experiment 2, 10 μM, None 143 ± 12) was determined as 127 ± 9 cells/well × 103.

Take `Oc1ccc(CC2NCCc3cc(O)c(O)cc32)cc1O` (stereo not shown) [Tetrahydropapaveroline]: the “PC 12 cells/well × 103” value with PC12 cells (setting [1]) turned out to be 346 ± 15 cells/well × 103. Moreover, the “toxic in vitro at physiological levels” value in the data set on PC12 cells (PC12 cells in culture) is “not”.

As to `O=c1c(-c2ccc(O)cc2)coc2cc(O)ccc12` [daidzein], the “inhibiting ALDH in PC-12 cells” value in the data set with ALDH is listed as “effective”.

The values are drawn from patent publication US20120005765A1, “ANIMAL MODEL FOR PARKINSON'S DISEASE” (Saint Louis University, priority 2010, published 2012).
